We go through one substance from article PMC11187126, “Structure and dynamics of the pyroglutamylated RF-amide peptide QRFP receptor GPR103” (Nature Communications, 2024).

As a reminder, the EC50 is the concentration needed to bring the measured effect to its halfway point. Low values mean an effect from little substance, high ones a need for much substance.

Where two headings read alike, the source gives them in different places. No end group written: not given here.

In this test the target is T1, GPR103 T102^2.61A (Homo sapiens, UniProt Q96P65, T102A).
T1 construct: we used human full-length QRFPR-encoding plasmids; expressed in transfected cells; host or cells: HEK293 cells, pCAGGS vector
T1 sequence (Q96P65 1-431 T102A): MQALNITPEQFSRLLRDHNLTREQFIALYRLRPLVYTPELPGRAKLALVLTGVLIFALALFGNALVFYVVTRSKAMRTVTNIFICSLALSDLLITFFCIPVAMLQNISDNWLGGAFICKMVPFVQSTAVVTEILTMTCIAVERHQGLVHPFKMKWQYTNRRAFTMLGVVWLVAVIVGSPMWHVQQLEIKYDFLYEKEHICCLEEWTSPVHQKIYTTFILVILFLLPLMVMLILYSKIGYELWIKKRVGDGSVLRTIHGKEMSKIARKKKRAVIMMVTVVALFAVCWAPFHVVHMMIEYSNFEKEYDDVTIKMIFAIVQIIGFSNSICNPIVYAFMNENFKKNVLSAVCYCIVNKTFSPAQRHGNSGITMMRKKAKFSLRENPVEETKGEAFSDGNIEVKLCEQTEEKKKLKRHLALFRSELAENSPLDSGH
As to the kind of experiment: TGFα shedding assay; Exp. level WT (1:1). Type of test: cell-based. Here is the method:
For the TGFα shedding assay and the flow cytometry analysis, we used human full-length QRFPR-encoding plasmids. Specifically, GPR103 was N-terminally modified with an HA signal sequence followed by a FLAG epitope and then a flexible linker ([…]; the FLAG epitope is underlined) and inserted into the pCAGGS vector. Plasmid encoding GPR103 mutants were generated using Quickchange Site-Directed Mutagensis kit (Agilent).
The TGFα shedding assay was performed as described previously with minor modifications. Plasmid transfection was performed in a 6-well plate with a mixture of 500 ng (per well in a 6-well plate) AP-TGFα-encoding plasmid and 200 ng GPR103-encoding plasmid. After 1-day culture, the transfected cells were harvested by trypsinization, pelleted by centrifugation at 190 × g for 5 min, and washed once with 5 mM HEPES (pH 7.4)-containing Hank’s Balanced Salt Solution (HBSS). After centrifugation, the cells were resuspended in 8 mL of the HEPES-containing HBSS. The cell suspension was seeded in a 96-well culture plate (cell plate) at a volume of 90 μL (per well hereafter) and incubated in a 37 °C incubator with 5% CO2 for 30 min. […] After spinning the cell plates at 190 × g for 2 min, 80 μL of conditioned media was transferred to an empty 96-well plate (conditioned media (CM) plate). Then, 80 μL of AP reaction solution (10 mM p-nitrophenylphosphate (p-NPP), 120 mM Tris-HCl (pH 9.5), 40 mM NaCl, and 10 mM MgCl2) was dispensed into the cell plates and the CM plates. Absorbance at 405 nm of the plates was measured using a microplate reader (SpectraMax 340 PC384, Molecular Devices) before and after 1-h incubation at room temperature. Ligand-induced AP-TGFα release was calculated by subtracting spontaneous AP-TGFα release signal from ligand-induced AP-TGFα release signal. The AP-TGFα release signals were fitted to a four-parameter sigmoidal concentration–response curve, using the Prism 10 software (GraphPad Prism). For each replicate experiment, the pEC50 parameter (negative logarithmic values of EC50 values) of the individual GPR103 mutants were normalized to that of the wild-type GPR103 performed in parallel, and resulting ∆pEC50 values were used to denote ligand response activity of the mutants. […]
Exp. le vel: WT (1:5 0)Exp. le vel: WT (1:5 0)Exp. le vel: WT (1:5 0)Exp. le vel: WT (1:2 0)Exp. le vel: WT (1:2 0)Exp. le vel: WT (1:1 0) […]
L1 4N - t e r mA F2 5N - t e r mA I 2 6N - t e r mA Y 2 9N - t e r mA C 9 82 .5 7A T10 22 .6 1A Exp . l eve l: WT (1 :5)Exp . l evel : >WT (1 :1)Exp. le vel: WT (1:2 0)Exp. le vel: WT (1:2 0)Exp. le vel: WT (1:5 0)Exp . l eve l: WT (1 :1) […]
Exp. le vel: WT (1:1 0)Exp. le vel: WT (1:2 0) C 1 1 83 .2 5AExp. le vel: WT (1:5 0)Exp. le vel: WT (1:5 0)Exp. le vel: WT (1:2 0)Exp . l eve l: WT (1 :5) […]
Exp. le vel: WT (1:5 0)Exp. le vel: WT (1:1 0)Exp. le vel: WT (1:5 0) E203ECL2AExp . l evel : >WT (1 :1)Exp. le vel: WT (1:5 0)Exp. le vel: WT (1:5 0) […]
Exp . l eve l: WT (1 :1) F28Exp. le vel: WT (1:5 0) C 2 8 56 .4 7AExp. le vel: WT (1:2 0) WExp. le vel: WT (1:2 0) F28Exp. le vel: WT (1:5 0)Exp . l evel : >WT (1 :1) […]
Exp. le vel: WT (1:5 0)Exp. le vel: WT (1:5 0) C 3 2 77 .4 8AExp . l eve l: WT (1 :5)Exp . l evel : >WT (1 :1)Exp . l evel : >WT (1 :1) […]
Suppl eme nt ary Figure 1 | Mutational analysis of GPR103. […]
mutants. Data are presented as mean values ± SEM, normally n=3-5; dots), each performed in triplicate. b-d Cell-surface expression (b) and QRFP26-in-duced activation of GPR103 (c, d) were analyzed by the flow cytometry and the TGFα shedding assay, respectively. From the concentration–response curves (a), Emax (c) and ΔpEC50 (d) values relative to the wild type were calculated. Colors in the mutant bars indicate an expression level matching to that of titrated wild type. Statistical analyses were performed using the ordinary one-way ANOVA followed by Dunnett tests with the expression-matched […]

Take TSGPLGNLAEELNGYSRKKGGFSFRF-NH2 [QRFP26]: the Emax (Exp. #1) was 102.50 % WT; the Emax (Exp. #2) is 94.07 % WT; the Emax (Exp. #3) was 109.18 % WT; the Emax (mean, read-out: Emax) was 102%; the Emax (n = 3, read-out: Emax) worked out at 105 ± 3.6%. Further, the EC50 (n = 3) is 20.4 nM.
